Where a SMILES comes first, the peptide text is derived from it. Bridges are numbered along the chain shown (N, C = ends). [ ]: non-standard residue; d: D form. NMeR = CN[C@@H](CCCNC(=N)N)C(=O)O; hArg = N=C(N)NCCCC[C@H](N)C(=O)O; Cit = NC(=O)NCCC[C@H](N)C(=O)O; Pen = CC(C)(S)[C@H](N)C(=O)O; Sar = CNCC(=O)O A value given as a limit tells only on which side of the number the result lay.

Assay [1] is described as follows: Inhibition of canine platelet-rich plasma agregation induced by ADP.
Assay [2] in a line: Inhibition of human washed platelet aggregation.

As for `CC(=O)N[C@H](CCCCNC(=N)N)C(=O)NCC(=O)N[C@@H](CC(=O)O)C(=O)N[C@@H](CO)C(N)=O`, the IC50 (commonly the concentration that gives 50% inhibition) in assay [1] came out at 68.2 µM. In other words, the double-digit micromolar range. For `CC(=O)N[C@@H](CCCNC(=N)N)C(=O)NCC(=O)N[C@@H](CC(=O)O)C(=O)NCCc1ccccc1`, the IC50 in assay [1] was 75.9 µM. This IC50 and that of the molecule before are within 1.5-fold of each other. For `CC(=O)N[C@@H](CCCCN)C(=O)NCC(=O)N[C@@H](CC(=O)O)C(=O)N[C@@H](CO)C(N)=O` (Ac-KGDS-NH2), the IC50 in assay [1] was > 200 µM. With `CC(=O)N[C@@H](CCCNC(=N)N)C(=O)NCC(=O)N[C@@H](CC(N)=O)C(=O)N[C@@H](CO)C(N)=O` (Ac-RGNS-NH2), the IC50 in assay [1] is > 200 µM. As for `CC(=O)N[C@H]1CSSC[C@@H](C(N)=O)NC(=O)[C@H](CC(=O)O)NC(=O)CNC(=O)[C@H](CCCN=C(N)N)NC1=O`, 16.2 µM corresponded to half-maximal inhibition in assay [1] (IC50). Same read-out and setting: the result for `CC(=O)N[C@H]1CSSC(C)(C)[C@@H](C(N)=O)NC(=O)[C@H](CC(=O)O)NC(=O)[C@H](C)NC(=O)[C@H](CCCN=C(N)N)NC1=O` (Ac-CRAD[Pen]-NH2; disulfide 1-5) reads 200 µM; that for `CC(=O)N[C@H]1CSSC(C)(C)[C@@H](C(N)=O)NC(=O)[C@H](CC(=O)O)NC(=O)CNC(=O)[C@H](CCCCN)NC1=O` (Ac-CKGD[Pen]-NH2; disulfide 1-5), 55.3 µM; that for `CC(=O)N[C@@H]1C(=O)N(C)[C@@H](CCCN=C(N)N)C(=O)NCC(=O)N[C@@H](CC(=O)O)C(=O)N[C@H](C(N)=O)C(C)(C)SSC1(C)C`, 0.37 µM. Take “Ac-HHLGGAKQAGDV-OH [1N-[1-[5-amino-1-formyl-(1S)-pentylcarbamoyl]-(1S)-ethylcarbamoylmethylcarbamoylmethyl]-2-[2-(1H-5-imidazolyl)-1-[2-(1H-5-imidazolyl)-1-methylcarboxamido-(1S)-ethylcarboxamido]-(1S)-ethylcarboxamido]-4-methyl-(2S)-pentanamide 2-[1-[1-[1-amino-3-carbamoyl-(1S)-propylcarboxamido]-(1S)-ethylcarboxamidomethylcarboxamido]-2-carboxy-(1S)-ethylcarboxamido]-3-methyl-(2S)-butanoic acid]”: in assay [1], the IC50 is > 200 µM. `CC(=O)N[C@@H](CCCNC(=N)N)C(=O)NCC(=O)N[C@@H](CC(=O)O)C(N)=O` returned an IC50 in assay [1] of 138 µM. Consider `CC(=O)N[C@@H](CCCCN)C(=O)NCC(=O)N[C@@H](CCC(=O)O)C(=O)N[C@@H](CO)C(N)=O` (Ac-KGES-NH2), for which the IC50 in assay [1] is > 200 µM. The molecule `CC(=O)N[C@@H](Cc1c[nH]cn1)C(=O)N[C@@H](Cc1c[nH]cn1)C(=O)N[C@@H](CC(C)C)C(=O)NCC(=O)NCC(=O)N[C@@H](C)C(=O)N[C@@H](CCCCN)C(=O)N[C@H]1CSSC(C)(C)[C@@H](C(N)=O)NC(=O)[C@H](CC(=O)O)NC(=O)CNC(=O)[C@H](CCCN=C(N)N)NC1=O` [1N-[1-formyl-(1S)-ethylcarbamoylmethylcarbamoylmethyl]-2-[2-(1H-5-imidazolyl)-1-[2-(1H-5-imidazolyl)-1-methylcarboxamido-(1S)-ethylcarboxamido]-(1S)-ethylcarboxamido]-4-methyl-(2S)-pentanamide [4-Carbamoyl-16-(2,6-diamino-hexanoylamino)-13-(3-guanidino-propyl)-3,3-dimethyl-6,9,12,15-tetraoxo-1,2-dithia-5,8,11,14-tetraaza-cycloheptadec-7-yl]-acetic acid] had an IC50 in assay [1] of 9.6 µM. Molecule `CC(=O)N[C@H]1CSSC[C@@H](C(N)=O)NC(=O)[C@H](CC(=O)O)NC(=O)CNC(=O)[C@H](CCCN=C(N)N)NC(=O)CNC1=O` displayed an IC50 in assay [1] of 52 µM. `CC(=O)N[C@@H](CCCNC(=N)N)C(=O)NCC(=O)N[C@@H](CC(=O)O)C(=O)N[C@H](C(N)=O)C(C)C` (Ac-RGDV-NH2) showed an IC50 in assay [1] of 55.5 µM. On the same count and under the same terms, the result for `CC(=O)N[C@@H](Cc1cnc[nH]1)C(=O)NCC(=O)N[C@@H](CC(=O)O)C(=O)N[C@@H](CO)C(N)=O` (Ac-HGDS-NH2) reads > 200 µM; that for `CC(=O)N[C@H]1CSSC(C)(C)[C@@H](C(N)=O)NC(=O)[C@H](CC(N)=O)NC(=O)CNC(=O)[C@H](CCCN=C(N)N)N(C)C1=O` (Ac-C[NMeR]GN[Pen]-NH2; disulfide 1-5), > 200 µM; that for `CC(=O)N[C@H]1CSSC(C)(C)[C@@H](C(N)=O)NC(=O)[C@H](CC(=O)O)NC(=O)CNC(=O)[C@H](CCCCN=C(N)N)NC1=O` (Ac-C[hArg]GD[Pen]-NH2; disulfide 1-5), 3.85 µM. Same read-out and setting: with `CC(=O)N[C@@H](CCCNC(=N)N)C(=O)NCC(=O)N[C@@H](CCC(=O)O)C(=O)N[C@@H](CO)C(N)=O` the figure was > 200 µM; with `CC(=O)N[C@@H](CCCCN)C(=O)N[C@H]1CSSC(C)(C)[C@@H](C(=O)O)NC(=O)[C@H](CC(=O)O)NC(=O)CNC(=O)[C@H](C)NC1=O` (Ac-KCAGD[Pen]-OH; disulfide 2-6), > 200 µM. For `CC(=O)N[C@@H](CCCNC(=N)N)C(=O)NCC(=O)N[C@H](CC(=O)N[C@@H](CO)C(N)=O)C(=O)O`, the IC50 in assay [1] is > 200 µM. The same measure, in the same setting: with `CC(=O)N[C@@H](CCCNC(=N)N)C(=O)N[C@@H](C)C(=O)N[C@@H](CC(=O)O)C(=O)N[C@@H](CO)C(N)=O` (Ac-RADS-NH2) the figure was > 200 µM. As to `CC(=O)N[C@@H](CCCNC(=N)N)C(=O)NCC(=O)N[C@@H](CC(=O)O)C(=O)N[C@@H](Cc1ccc(O)cc1)C(N)=O` (Ac-RGDY-NH2), the IC50 in assay [1] was found to be 102 µM.

The molecule Ac-RRGDF-NH2 gave an IC50 in assay [1] of 113 µM.

Molecule `CC(=O)N[C@@H]1C(=O)N[C@@H](CCCN=C(N)N)C(=O)NCC(=O)N[C@@H](CC(=O)O)C(=O)N[C@H](C(N)=O)CSSC1(C)C` registered an IC50 in assay [1] of 7.97 µM.

Turning to `CC(=O)N[C@H]1CSSC(C)(C)[C@@H](C(N)=O)NC(=O)[C@H](CC(=O)O)NC(=O)CNC(=O)[C@H](CCCN=C(N)N)NC(=O)CNC1=O`, 11.4 µM corresponded to half-maximal inhibition in assay [1] (IC50).

In assay [1], `CC(=O)N[C@H]1CSSC(C)(C)[C@@H](C(N)=O)NC(=O)[C@H](CC(=O)O)NC(=O)CN(C)C(=O)[C@H](CCCN=C(N)N)NC1=O` displayed an IC50 of 73.4 µM. The same measure, in the same setting: the result for `CCNC(=O)[C@H](CO)NC(=O)[C@H](CC(=O)O)NC(=O)CNC(=O)[C@H](CCCNC(=N)N)NC(C)=O` (Ac-RGDS-NHEt) reads > 200 µM; that for `CC(=O)N[C@@H](CCCNC(=N)N)C(=O)N1CCC[C@H]1C(=O)N[C@@H](CC(=O)O)C(=O)N[C@@H](CO)C(N)=O` (Ac-RPDS-NH2), > 200 µM; that for `CC(=O)N[C@@H](CCCNC(=N)N)C(=O)N(C)CC(=O)N[C@@H](CC(=O)O)C(=O)N[C@@H](CO)C(N)=O` (Ac-R[Sar]DS-NH2), > 200 µM. The same measure, in the same setting: with `CC(=O)N[C@H]1CSSC[C@@H](C(N)=O)NC(=O)[C@H](CO)NC(=O)[C@H](CC(=O)O)NC(=O)CNC(=O)[C@H](CCCN=C(N)N)NC1=O` (Ac-CRGDSC-NH2; disulfide 1-6) the figure was 32.7 µM. The same measure, in the same setting: with `CC(=O)N[C@@H](CCCNC(N)=O)C(=O)NCC(=O)N[C@@H](CC(=O)O)C(=O)N[C@@H](CO)C(N)=O` (Ac-[Cit]GDS-NH2) the figure was > 200 µM.

Turning to `CC(=O)N[C@H]1CSSC(C)(C)[C@@H](C(N)=O)NC(=O)[C@H](CC(=O)O)NC(=O)CNC(=O)[C@H](CCCN=C(N)N)N(C)C1=O` (Ac-C[NMeR]GD[Pen]-NH2; disulfide 1-5), the Ki (commonly the dissociation constant of the complex between target and ligand, obtained from inhibition or displacement) in assay [2] was 0.062 µM. In assay [1], this molecule displayed an IC50 of 0.355 µM.

The record behind these values is BindingDB's records for doi:10.1021/jm00114a022 (Smithkline Beecham Pharmaceuticals Research and Development, 1991).
